From patent US8293211B2, “CB1 receptor antagonists and uses thereof” (MAKScientific, LLC, priority 2007, dated 2012)

Biological target: CB1 receptor (Rattus norvegicus, UniProt P20272)
Assay: Thermoregulation assay: hypothermia induced by the CB1 agonist CP55,940
Assay type: in vivo
Set-up: antagonized CB1 receptors in vivo; from tissue; host or cells: whole animal, male SD rats
Description: Briefly, silicone coated temperature data loggers (SubCue Inc, Calgary, Canada) were surgically implanted into the abdominal cavity of male SD (450-500 g) rats under isoflurane anesthesia (4% induction; 2-2.5% maintenance). Rats were allowed to recover for 3 days before being acclimatized to testing and handling procedures for an additional seven days. Core body temperature readings were sampled every 5 min for 300 min during the course of each experiment.

CB1 receptor, sequence (P20272 whole entry): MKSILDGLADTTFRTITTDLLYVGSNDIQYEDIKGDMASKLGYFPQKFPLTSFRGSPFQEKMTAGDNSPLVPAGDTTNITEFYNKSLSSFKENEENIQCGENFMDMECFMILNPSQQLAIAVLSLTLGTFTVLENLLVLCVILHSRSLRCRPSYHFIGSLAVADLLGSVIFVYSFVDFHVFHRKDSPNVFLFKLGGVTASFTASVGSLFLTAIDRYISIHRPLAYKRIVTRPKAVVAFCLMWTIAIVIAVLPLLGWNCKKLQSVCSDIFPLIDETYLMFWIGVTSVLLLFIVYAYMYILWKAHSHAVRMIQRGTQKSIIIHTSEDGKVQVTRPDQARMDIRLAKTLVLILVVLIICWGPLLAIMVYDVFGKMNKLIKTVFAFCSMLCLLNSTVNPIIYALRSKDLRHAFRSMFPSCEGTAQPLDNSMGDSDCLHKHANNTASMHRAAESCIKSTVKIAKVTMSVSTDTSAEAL

hypothermic effect of CP55,940 (5 mg kg-1 pre-treatment 45 min before CP55,940 0.3 mg kg-1, compared with vehicle): completely blocked
blood brain barrier passage (inferred from block of centrally mediated hypothermia, within a short period after administration): crosses the blood brain barrier
Compound: Cc1c(C(=O)NN2CCCCC2)nn(-c2ccc(Cl)cc2Cl)c1-c1ccc(C#CCCC#N)cc1 [Compound 3]
